Test results as given in PubChem BioAssay (NCI).
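Results reflect a 48-hour exposure of cells in 96-well plates to compound at five concentrations. TGI is the concentration that stops growth completely.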

Tests used:
Experiment in all cases: inhibition of tumour cell growth, NCI panel, 48 h
NCI-H23 lung = tested on: NCI-H23 lung
NCI/ADR-RES ovarian = tested on: NCI/ADR-RES ovarian
T-47D breast = tested on: T-47D breast
HOP-62 NSCLC = tested on: HOP-62 NSCLC
MALME-3M melanoma = tested on: MALME-3M melanoma
DU-145 prostate = tested on: DU-145 prostate
HCC-2998 colon = tested on: HCC-2998 colon
TK-10 renal = tested on: TK-10 renal
SF-295 CNS = tested on: SF-295 CNS
SK-MEL-5 melanoma = tested on: SK-MEL-5 melanoma
SNB-75 CNS = tested on: SNB-75 CNS
SN12C renal = tested on: SN12C renal
NCI-H460 lung = tested on: NCI-H460 lung
IGROV1 ovarian = tested on: IGROV1 ovarian
KM12 colon = tested on: KM12 colon
COLO 205 colon = tested on: COLO 205 colon
UO-31 renal = tested on: UO-31 renal
HL-60(TB) leukemia = tested on: HL-60(TB) leukemia
786-0 renal = tested on: 786-0 renal
NCI-H522 lung = tested on: NCI-H522 lung
SNB-19 CNS = tested on: SNB-19 CNS
MDA-MB-435 = tested on: MDA-MB-435
UACC-62 melanoma = tested on: UACC-62 melanoma
EKVX NSCLC = tested on: EKVX NSCLC
HCT-15 colon = tested on: HCT-15 colon
HT29 colon = tested on: HT29 colon
OVCAR-4 ovarian = tested on: OVCAR-4 ovarian
A498 renal = tested on: A498 renal
HCT-116 colon = tested on: HCT-116 colon
K-562 leukemia = tested on: K-562 leukemia
CAKI-1 renal = tested on: CAKI-1 renal
SR leukemia = tested on: SR leukemia
SK-MEL-28 melanoma = tested on: SK-MEL-28 melanoma
SF-268 CNS = tested on: SF-268 CNS
LOX IMVI melanoma = tested on: LOX IMVI melanoma
HS 578T breast = tested on: HS 578T breast
SF-539 CNS = tested on: SF-539 CNS
PC-3 prostate = tested on: PC-3 prostate
A549 NSCLC = tested on: A549 NSCLC
UACC-257 melanoma = tested on: UACC-257 melanoma
MCF7 breast = tested on: MCF7 breast
RXF 393 renal = tested on: RXF 393 renal
OVCAR-3 ovarian = tested on: OVCAR-3 ovarian
HOP-92 NSCLC = tested on: HOP-92 NSCLC
SK-MEL-2 melanoma = tested on: SK-MEL-2 melanoma
ACHN renal = tested on: ACHN renal
OVCAR-5 ovarian = tested on: OVCAR-5 ovarian
SW-620 colon = tested on: SW-620 colon
M14 melanoma = tested on: M14 melanoma
SK-OV-3 ovarian = tested on: SK-OV-3 ovarian
MDA-N = tested on: MDA-N
OVCAR-8 ovarian = tested on: OVCAR-8 ovarian
U251 CNS = tested on: U251 CNS
MDA-MB-231 breast = tested on: MDA-MB-231 breast
CCRF-CEM leukemia = tested on: CCRF-CEM leukemia
NCI-H226 lung = tested on: NCI-H226 lung
MOLT-4 leukemia = tested on: MOLT-4 leukemia
RPMI-8226 leukemia = tested on: RPMI-8226 leukemia

Molecule `CC(C)(C)C1=C(Br)C(Br)(C(C)(C)C)OP1(=O)c1ccccc1` (centres undefined) has a TGI (NCI-H23 lung) of over 100 µM, a TGI (NCI/ADR-RES ovarian) of over 100 µM and a TGI (T-47D breast) of over 100 µM. The TGI (HOP-62 NSCLC) was over 100 µM, the TGI (MALME-3M melanoma) was over 100 µM and the TGI (DU-145 prostate) was over 100 µM. For the same molecule, the TGI (HCC-2998 colon) was over 100 µM, the TGI (TK-10 renal) was over 100 µM and the TGI (SF-295 CNS) was over 100 µM. For the same molecule, the TGI (SK-MEL-5 melanoma) was over 100 µM, the TGI (SNB-75 CNS) was over 100 µM and the TGI (SN12C renal) was over 100 µM. The TGI (NCI-H460 lung) was over 100 µM, the TGI (IGROV1 ovarian) was over 100 µM and the TGI (KM12 colon) was over 100 µM. For the same molecule, the TGI (COLO 205 colon) was over 100 µM, the TGI (UO-31 renal) was over 100 µM and the TGI (HL-60(TB) leukemia) was over 100 µM. For the same molecule, the TGI (786-0 renal) was over 100 µM, the TGI (NCI-H522 lung) was over 100 µM and the TGI (SNB-19 CNS) was over 100 µM. It also gave a TGI (MDA-MB-435) of over 100 µM, a TGI (UACC-62 melanoma) of over 100 µM and a TGI (EKVX NSCLC) of over 100 µM. For the same molecule, the TGI (HCT-15 colon) was over 100 µM, the TGI (HT29 colon) was over 100 µM and the TGI (OVCAR-4 ovarian) was over 100 µM. For the same molecule, the TGI (A498 renal) was over 100 µM, the TGI (HCT-116 colon) was over 100 µM and the TGI (K-562 leukemia) was over 100 µM. It also gave a TGI (CAKI-1 renal) of over 100 µM, a TGI (SR leukemia) of over 100 µM and a TGI (SK-MEL-28 melanoma) of over 100 µM. It also gave a TGI (SF-268 CNS) of over 100 µM, a TGI (LOX IMVI melanoma) of over 100 µM and a TGI (HS 578T breast) of over 100 µM. For the same molecule, the TGI (SF-539 CNS) was over 100 µM, the TGI (PC-3 prostate) was over 100 µM and the TGI (A549 NSCLC) was over 100 µM. The TGI (UACC-257 melanoma) was over 100 µM, the TGI (MCF7 breast) was over 100 µM and the TGI (RXF 393 renal) was over 100 µM. It also gave a TGI (OVCAR-3 ovarian) of over 100 µM, a TGI (HOP-92 NSCLC) of over 100 µM and a TGI (SK-MEL-2 melanoma) of over 100 µM. It also gave a TGI (ACHN renal) of over 100 µM, a TGI (OVCAR-5 ovarian) of over 100 µM and a TGI (SW-620 colon) of over 100 µM. The TGI (M14 melanoma) was over 100 µM, the TGI (SK-OV-3 ovarian) was over 100 µM and the TGI (MDA-N) was over 100 µM. The TGI (OVCAR-8 ovarian) was over 100 µM and the TGI (U251 CNS) was over 100 µM.
`CCOC(=O)c1csc(NC(=O)CCN(CC)CC)n1` was tested, and the TGI (NCI-H23 lung) was over 100 µM, the TGI (NCI/ADR-RES ovarian) was over 100 µM and the TGI (MDA-MB-231 breast) was over 100 µM. The TGI (T-47D breast) was over 100 µM, the TGI (HOP-62 NSCLC) was over 100 µM and the TGI (CCRF-CEM leukemia) was 83.3 µM. For the same molecule, the TGI (DU-145 prostate) was over 100 µM, the TGI (HCC-2998 colon) was over 100 µM and the TGI (TK-10 renal) was 62.8 µM. It also gave a TGI (SF-295 CNS) of over 100 µM, a TGI (SK-MEL-5 melanoma) of over 100 µM and a TGI (SNB-75 CNS) of 73.5 µM. It also gave a TGI (NCI-H460 lung) of over 100 µM, a TGI (IGROV1 ovarian) of over 100 µM and a TGI (KM12 colon) of 52.8 µM. For the same molecule, the TGI (COLO 205 colon) was 84.8 µM, the TGI (UO-31 renal) was over 100 µM and the TGI (HL-60(TB) leukemia) was over 100 µM. For the same molecule, the TGI (SNB-19 CNS) was over 100 µM, the TGI (MDA-MB-435) was over 100 µM and the TGI (UACC-62 melanoma) was over 100 µM. It also gave a TGI (EKVX NSCLC) of over 100 µM, a TGI (NCI-H226 lung) of 89 µM and a TGI (HCT-15 colon) of 75.3 µM. The TGI (HT29 colon) was 64.6 µM, the TGI (OVCAR-4 ovarian) was over 100 µM and the TGI (A498 renal) was over 100 µM. For the same molecule, the TGI (K-562 leukemia) was over 100 µM, the TGI (CAKI-1 renal) was 42.8 µM and the TGI (SR leukemia) was over 100 µM. The TGI (SK-MEL-28 melanoma) was 62 µM, the TGI (LOX IMVI melanoma) was over 100 µM and the TGI (MOLT-4 leukemia) was 90.3 µM. For the same molecule, the TGI (SF-539 CNS) was 56.8 µM, the TGI (PC-3 prostate) was over 100 µM and the TGI (A549 NSCLC) was over 100 µM. The TGI (RPMI-8226 leukemia) was over 100 µM, the TGI (UACC-257 melanoma) was over 100 µM and the TGI (MCF7 breast) was 55.5 µM. It also gave a TGI (RXF 393 renal) of over 100 µM, a TGI (OVCAR-3 ovarian) of 69 µM and a TGI (HOP-92 NSCLC) of 69.3 µM. For the same molecule, the TGI (SK-MEL-2 melanoma) was over 100 µM, the TGI (ACHN renal) was over 100 µM and the TGI (OVCAR-5 ovarian) was over 100 µM. It also gave a TGI (SW-620 colon) of 92.8 µM, a TGI (M14 melanoma) of 64.1 µM and a TGI (SK-OV-3 ovarian) of over 100 µM. The TGI (MDA-N) was over 100 µM, the TGI (OVCAR-8 ovarian) was 95.9 µM and the TGI (U251 CNS) was over 100 µM.
